Experimental data as given in a melting point compilation (Tetko et al.; mined from patent text by program, amines drawn as free bases though some values may be those of a salt).

Point of comparison: `CCOC(=O)C1=C(C)NC(C)=C(C(=O)OC(C)C)C1c1cccc2ccccc12` (stereo not given), melting point 167 °C. Against it:
- CCOc1ccc(C(=O)Nc2ccccc2)cc1NC(=S)Nc1cc(Cl)cc(Cl)c1 — higher, 201 to 202 °C
- CC(=NNc1ccc(-c2n[nH]c(=O)cc2C)cc1)c1ccc(O)cc1O — higher, 299 to 303 °C
- CC(C)NCC#CC1(O)c2ccccc2-c2ccccc21 — lower, 135 to 137 °C
- COc1cc(C(=O)O)ccc1Cn1nc(O)c2ccc(NC(=O)CC3CCCC3)cc21 — higher, 269 to 272 °C
- C=C(Br)n1ccnc1[N+](=O)[O-] — lower, 80 to 82 °C
- N#CC(=NNc1c(Cl)cc(C(F)(F)F)cc1Cl)c1ccc(C#N)cc1 — higher, 186 to 187 °C
- COC(=O)Cc1c(O)c(C)nn1C — lower, 119 to 120 °C
- O=C1CC2CS(=O)c3ccccc3C2=NN1c1ccc(Cl)cc1 (stereo not given) — higher, 190 to 192 °C
- ClC(Cl)(Cl)C1Oc2ccc(C=NNc3ccccc3)cc2C(C(Cl)(Cl)Cl)O1 (stereo not given) — higher, 191 to 192 °C
- CCC1c2cccn2-c2ccc(F)cc2N1S(=O)(=O)c1ccc(OC)c(C)c1 (stereo not given) — lower, 164 to 166 °C
- CCCCCCCCCCCCCCCCOCC(CO)OCCCCCCCCCCCCCC (stereo not given) — lower, 42 to 43 °C
- COC1(C(=O)Cc2ccc(-c3ccc(O)cc3)cc2)C=CC(Cl)=CC1N (stereo not given) — not separable, 165 to 168 °C
- CC(=O)c1cc2c(cc1C=O)C(C)(C)CCC2(C)C — lower, 116 °C
- COc1ccc2c(c1)C(c1ccc([N+](=O)[O-])cc1)=NNC(=O)C2 — higher, 282 °C
- CCCc1c(C#N)c2ccc(C(=O)OC)cc2n1Cc1ccccc1Cl — lower, 132 to 133 °C
- CN(C)C(=O)C(C#N)=C1Nc2ccccc2O1 — higher, 196 °C
- O=C1[C@H]2CCC[C@H]2Nc2ccccc2N1Cc1cccc([N+](=O)[O-])c1 (relative stereo) — higher, 169 to 171 °C
- CC1(C)NC(SCc2ccccc2)=NC1=S — lower, 133 to 134 °C
- OCCN1CCN(C2Cc3ccccc3Sc3cc(F)c(Cl)cc32)CC1 (stereo not given) — lower, 150 to 152 °C
- Oc1ccc(OCCN2CCC(CC34CC5CC(CC(C5)C3)C4)CC2)cc1 — higher, 178 to 179 °C
- CC(C)C(=O)C(=Cc1cc(O)c(O)c([N+](=O)[O-])c1)c1ccccc1 — lower, 151 to 156 °C
- CCC12CCC(=O)C=C1CCC2=O (single isomer, unassigned; (+)) — lower, 56 to 58.5 °C
- CCOC(=O)COc1ccc(NC(=O)OCc2ccccc2)cc1 — lower, 85 to 86 °C
- CCOC(=O)c1cnc(-c2ccccc2)nc1OCc1ccc(OCc2nc(-c3ccco3)oc2C)c(OC)c1 — lower, 142 to 143 °C
- COC(=O)Cn1c(=O)n(C)c(=O)n(-c2cc(Oc3c(Cl)ccc(C)c3Cl)ccc2[N+](=O)[O-])c1=O — higher, 200 to 202 °C
- CCN(c1ccc(Cl)cc1C(O)c1ccccc1Cl)S(=O)(=O)c1ccc(OC)c(OC)c1 (stereo not given) — lower, 154 °C
- CCCCCCCCCCCCc1ccccc1C(SCC(=O)O)C(=O)O (stereo not given) — lower, 65 to 66 °C
- CN(C)C1CCC2(CC1)Nc1cc(Cl)c(S(N)(=O)=O)cc1S(=O)(=O)N2 (stereo not given) — higher, 255 °C
- Cc1cc(C)c(O)c(Cc2cc(C)cc(C)c2O)c1 — lower, 125 to 126 °C
- CN1Cc2c(-c3noc(CCl)n3)ncn2-c2cccc(Br)c2C1=O — higher, 242 to 244 °C
- CC1(C)C(c2ccncc2)=Nc2ccc(-c3ccc(=O)[nH]n3)cc21 — higher, 305 to 307 °C
- O=C(Cc1ccc(F)cc1)Nc1ccc(-n2nc(C3CC3)cc2C2CC2)cc1 — lower, 141 to 148 °C
- CP(=O)(NCC(=O)OCc1ccccc1)C1CC(c2ccccc2)=NO1 (stereo not given) — lower, 132 to 135 °C
- COc1ccc2c(=O)cc(-c3ccccc3Cl)oc2c1 — lower, 148 to 150 °C
- CCCCN(C)CCOc1ccc(Cn2c(-c3ccc(O)cc3)c(C)c3cc(O)ccc32)cc1 — lower, 102 to 107 °C
- COc1nc(N)nc2c1ncn2CCC(CO)CO — lower, 84 to 86 °C
- O=C1Nc2ccc(Br)cc2C1c1ncnc2nn(C3CCCCC3)cc12 (stereo not given) — higher, 285 to 290 °C
- Cc1onc(-c2ccccc2)c1-c1ccccc1 — lower, 95.5 to 96.2 °C
- CC(C)Oc1cc(-n2c(Cl)nc(C(F)(F)F)cc2=O)c(F)cc1Br — lower, 102 °C
- COC(=O)CCC#Cc1cc(Cl)ccc1NS(=O)(=O)c1ccc(C(F)(F)F)cc1 — lower, 80 °C
- COc1cc(-n2c(I)nnc2I)ccc1C — higher, 176 °C
- O=C(O)CCCCCN1CCCCC1 — lower, 74 to 76 °C
- Fc1cc(F)c2c(c1)C(n1cc[nH]c1=S)CC2 (single isomer, unassigned; (+)) — higher, 191 to 193 °C
- COc1ccc(C2=NN(C3CCN(S(=O)(=O)c4cccc(C)c4)CC3)C(=O)C(C)(C)C2)cc1OC — lower, 150 to 152 °C
- CCN1CCN(c2ccc(Br)nc2)CC1 — lower, 30 to 31 °C
- CC1=C(/C=C/C(C)=C/C=C/C(C)=C/C(=O)OCOC(=O)Oc2ccc([N+](=O)[O-])cc2)C(C)(C)CCC1 — lower, 35 to 36 °C
- CCN1c2ncccc2C(=O)N(C)c2ccc(-c3cnn(C)c3)nc21 — lower, 65 to 67 °C
- COC(=O)c1ccc(NC(=O)C(N)c2ccc3c(c2)C(C)(C)CCC3(C)C)s1 (stereo not given) — lower, 110 to 112 °C
- CC(=O)n1c(=O)n(-c2ccc(Cl)cc2)c(=O)n1C(C)=O — lower, 148 to 150 °C
- CNc1nc(N)nc(-c2cc(Cl)ccc2Cl)n1 — higher, 205 to 206 °C
- COc1ccc(-c2sc3cc(OC)ccc3c2C(=O)c2ccc(Br)cc2)cc1 — lower, 127 to 129 °C
- O=C(O)C1(O)CCCN(Cc2ccccc2)C1 (stereo not given) — lower, 104 °C
- Cn1nc2c(N)nc3ccccc3c2c1CC(C)(C)O — higher, 256 to 257 °C
- O=C(O)c1c(F)c(F)cc([N+](=O)[O-])c1F — lower, 98 to 99 °C
- CN1CCC23c4cccc(O)c4OC2C2CCC3(CC2)C1 (stereo not given) — higher, 174 to 176 °C
- O=C1OC(C2CCCCC2)(C2CCCCC2)C2CNCCN12 (stereo not given) — lower, 151 to 152 °C
- CC(C)(C)OC(=O)N1CCN(c2cccc3c2ccn3S(=O)(=O)c2ccccc2)CC1 — lower, 143 to 144 °C
- CCC1(CC(=O)O)CCC(c2ccccc2)c2c1n(C)c1cc(OCc3ccc4ccccc4n3)ccc21 (stereo not given) — higher, 185 to 191 °C
- CCOC(=O)Cc1ccc(NC(=O)C(Cn2ccnc2)NS(=O)(=O)c2ccc(F)cc2)cc1 (racemic) — lower, 155 to 157 °C
- COC(=O)C(=O)c1oc2cccc(OCc3ccc(F)cc3)c2c1O — lower, 138 to 141 °C
- COc1cn(C(c2ccccc2)c2ccccc2)c(=O)o1 — lower, 125 to 127 °C
- COc1ccc(SCc2oc(=O)oc2C)cc1 — lower, 59 to 61 °C
- CC(C)(C)c1cc(SCc2ccc(-c3nnn[nH]3)cc2)cc(C(C)(C)C)c1 — higher, 187 to 189 °C
- O=c1[nH]c2c(-c3ccccc3F)nnn2c2ccccc12 — higher, 238 to 241 °C
- NC(=O)Cc1cc(Oc2ccc3c(ccn3C(=O)Nc3ccc(N4CCOCC4)c(C(F)(F)F)c3)c2)ncn1 — higher, 272 to 275 °C
- C=CCOc1ccc(C)c2c1C(=O)C1CCCCC21 (stereo not given) — lower, 106 to 107 °C
- CCCCCCCCCCCCCCCCCCOP(=O)(Cc1cc(Cl)c(O)c(C(C)(C)C)c1)OCCCCCCCCCCCCCCCCCC — lower, 55 °C
- CCOC(=O)C=Cc1ccc(CCc2nc(-c3ccccc3)c(C)s2)cc1 — lower, 69 to 70 °C
- CCOC(=O)CCCCc1cccc(-c2nc(=O)c3ccccc3s2)n1 — lower, 87 to 88 °C
